ChEMBL document CHEMBL1201862, “PubChem BioAssay data set” (2004)
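Five compound concentrations were applied to cells in 96-well plates for 48 hours; endpoints were derived by simple linear interpolation of the resulting dose-response curve. GI50 marks 50% less growth.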 The source made the active and inactive calls. Cut-off read from the data, not from the text of the source: active = GI50 up to about 1.1 µM and inactive = higher.

Key:
Experiment in all cases: NCI-60 cell line screen, 48 h
HCT-15 = test system: HCT-15
MCF7 = test system: MCF7
Malme-3M = test system: Malme-3M
HT-29 = test system: HT-29
HOP-92 = test system: HOP-92
A498 = test system: A498
CCRF-CEM = test system: CCRF-CEM
ACHN = test system: ACHN
RPMI-8226 = test system: RPMI-8226
MOLT-4 = test system: MOLT-4
PC-3 = test system: PC-3
EKVX = test system: EKVX
OVCAR-5 = test system: OVCAR-5
SK-MEL-2 = test system: SK-MEL-2
OVCAR-4 = test system: OVCAR-4
SNB-75 = test system: SNB-75
OVCAR-8 = test system: OVCAR-8
TK-10 = test system: TK-10
NCI-H522 = test system: NCI-H522

Row | Structure (SMILES) | GI50 (HCT-15) | GI50 (MCF7) | GI50 (Malme-3M) | GI50 (HT-29) | GI50 (HOP-92) | GI50 (A498) | GI50 (CCRF-CEM) | GI50 (ACHN) | GI50 (RPMI-8226) | GI50 (MOLT-4) | GI50 (PC-3) | GI50 (EKVX) | GI50 (OVCAR-5) | GI50 (SK-MEL-2) | GI50 (OVCAR-4) | GI50 (SNB-75) | GI50 (OVCAR-8) | GI50 (TK-10) | GI50 (NCI-H522)
1 | Cc1nn(C(=O)c2ccccc2O)c2c1C(c1ccc3ccccc3c1O)SC(=N)N2 (stereo unspecified) | 4.26 µM | 2.44 µM (inactive) | > 10 µM (inactive) | 9.55 µM (inactive) | 0.378 µM (active) | 6.47 µM (inactive) | 3.76 µM (inactive) | 3.8 µM (inactive) | 4.34 µM (inactive) | 2.98 µM (inactive) | 3.66 µM (inactive) | 9.79 µM (inactive) | 7.19 µM (inactive) | 4.39 µM (inactive) | 5.13 µM (inactive) | 2.85 µM (inactive) | 5.11 µM (inactive) | 8.75 µM (inactive) | –
2 | Cn1c(=O)c2nc3nnc(C#N)c(N)n3c2n(C)c1=O | > 100 µM | > 100 µM (inactive) | 25.2 µM (inactive) | > 100 µM (inactive) | 31.8 µM (inactive) | 51.4 µM (inactive) | 67.8 µM (inactive) | 44.4 µM (inactive) | > 100 µM (inactive) | > 100 µM (inactive) | > 100 µM (inactive) | > 100 µM (inactive) | > 100 µM (inactive) | > 100 µM (inactive) | > 100 µM (inactive) | – | > 100 µM (inactive) | > 100 µM (inactive) | > 100 µM (inactive)
3 | [N-]=[N+]=NC1OC(=O)C(Cl)=C1N=P(c1ccccc1)(c1ccccc1)c1ccccc1 (stereo unspecified) | 7.35 µM | 7.13 µM (inactive) | > 10 µM (inactive) | – | – | > 10 µM (inactive) | 4.3 µM (inactive) | 8.63 µM (inactive) | 3.34 µM (inactive) | 3.01 µM (inactive) | 2.95 µM (inactive) | > 10 µM (inactive) | > 10 µM (inactive) | > 10 µM (inactive) | 9.71 µM (inactive) | 6.84 µM (inactive) | > 10 µM (inactive) | > 10 µM (inactive) | 6.67 µM (inactive)
4 | c1ccc(C2(c3cc4ccccc4[nH]3)OCCO2)nc1 | > 100 µM | > 100 µM (inactive) | > 100 µM (inactive) | > 100 µM (inactive) | > 100 µM (inactive) | > 100 µM (inactive) | > 100 µM (inactive) | > 100 µM (inactive) | – | – | > 100 µM (inactive) | > 100 µM (inactive) | > 100 µM (inactive) | > 100 µM (inactive) | > 100 µM (inactive) | > 100 µM (inactive) | > 100 µM (inactive) | > 100 µM (inactive) | –
5 | O=C1CN(/N=C/c2ccc(-c3ccc(F)cc3)o2)C(=O)N1 | 39 µM | 49.1 µM (inactive) | 47.5 µM (inactive) | – | 0.394 µM (active) | 25.2 µM (inactive) | > 100 µM (inactive) | > 100 µM (inactive) | 28 µM (inactive) | 91.4 µM (inactive) | > 100 µM (inactive) | > 100 µM (inactive) | > 100 µM (inactive) | 34.6 µM (inactive) | – | – | > 100 µM (inactive) | 69.2 µM (inactive) | 21.1 µM (inactive)
6 | CCCCCCc1cc2cc(C(=O)Nc3cccc(F)c3)c(=N)oc2cc1O | 2.31 µM | 3.19 µM (inactive) | 2.31 µM (inactive) | 17.9 µM (inactive) | – | 3.02 µM (inactive) | 1.63 µM (inactive) | 3.16 µM (inactive) | 1.62 µM (inactive) | 1.95 µM (inactive) | 3.21 µM (inactive) | 2.34 µM (inactive) | 3.6 µM (inactive) | 2.16 µM (inactive) | 2.78 µM (inactive) | – | 1.59 µM (inactive) | – | 1.59 µM (inactive)
7 | Cc1cn(C2OC(CO[Si](C)(C)C(C)(C)C)/C(=C\C#N)C2O[Si](C)(C)C(C)(C)C)c(=O)[nH]c1=O (stereo unspecified) | 14.4 µM | 1.89 µM (inactive) | – | 40.7 µM (inactive) | > 100 µM (inactive) | > 100 µM (inactive) | 9.51 µM (inactive) | 83 µM (inactive) | > 100 µM (inactive) | > 100 µM (inactive) | 3.83 µM (inactive) | – | > 100 µM (inactive) | 8.73 µM (inactive) | 58.3 µM (inactive) | 56.9 µM (inactive) | – | > 100 µM (inactive) | –
8 | Cn1cc(NC(=O)c2cc(NC(=O)CNC(=N)N)cn2C)cc1C(=O)NCCC(=N)N [NETROPSIN CHLORIDE] | > 100 µM | > 100 µM (inactive) | 41.7 µM (inactive) | > 100 µM (inactive) | > 100 µM (inactive) | > 100 µM (inactive) | > 100 µM (inactive) | > 100 µM (inactive) | > 100 µM (inactive) | > 100 µM (inactive) | > 100 µM (inactive) | > 100 µM (inactive) | > 100 µM (inactive) | > 100 µM (inactive) | > 100 µM (inactive) | – | > 100 µM (inactive) | > 100 µM (inactive) | > 100 µM (inactive)
9 | O=C(O)c1cc(-c2ccc3c(O)ccc(O)c3c2)ccc1O | 16.9 µM | 22.6 µM (inactive) | 18.7 µM (inactive) | 18.8 µM (inactive) | – | 17.4 µM (inactive) | 1.87 µM (inactive) | 19.3 µM (inactive) | 4.78 µM (inactive) | 3.01 µM (inactive) | 12.9 µM (inactive) | 18.2 µM (inactive) | 18.3 µM (inactive) | 17.2 µM (inactive) | 16.5 µM (inactive) | 17 µM (inactive) | 23.7 µM (inactive) | 20.3 µM (inactive) | 15.3 µM (inactive)
10 | Cc1ccc(C2SC(=N)Nc3c2c(C)nn3C(=O)c2ccccc2O)cc1 (stereo unspecified) | > 10 µM | > 10 µM (inactive) | > 10 µM (inactive) | > 10 µM (inactive) | 0.475 µM (active) | 3.59 µM (inactive) | > 10 µM (inactive) | 6.03 µM (inactive) | > 10 µM (inactive) | 7.43 µM (inactive) | > 10 µM (inactive) | > 10 µM (inactive) | > 10 µM (inactive) | 6.31 µM (inactive) | > 10 µM (inactive) | 2.54 µM (inactive) | > 10 µM (inactive) | > 10 µM (inactive) | –
11 | CC(=O)N1c2ccccc2C2=NN(C)C(=N)SC21 (stereo unspecified) | > 100 µM | > 100 µM (inactive) | 68.4 µM (inactive) | > 100 µM (inactive) | – | 66.7 µM (inactive) | > 100 µM (inactive) | > 100 µM (inactive) | > 100 µM (inactive) | > 100 µM (inactive) | > 100 µM (inactive) | > 100 µM (inactive) | > 100 µM (inactive) | > 100 µM (inactive) | > 100 µM (inactive) | 56 µM (inactive) | > 100 µM (inactive) | > 100 µM (inactive) | 67.8 µM (inactive)
12 | CCOC(=O)/C(C(=O)Nc1cccc(Cl)c1)=C(/N)N1CCOCC1 | > 100 µM | > 100 µM (inactive) | > 100 µM (inactive) | > 100 µM (inactive) | – | > 100 µM (inactive) | > 100 µM (inactive) | > 100 µM (inactive) | > 100 µM (inactive) | > 100 µM (inactive) | > 100 µM (inactive) | > 100 µM (inactive) | > 100 µM (inactive) | > 100 µM (inactive) | > 100 µM (inactive) | > 100 µM (inactive) | > 100 µM (inactive) | > 100 µM (inactive) | > 100 µM (inactive)
